Test results from patent US12539292B2, “BRM targeting compounds and associated methods of use” (Arvinas Operations, Inc., priority 2018, dated 2026).
Where two headings read alike, the source gives them in different places.

Molecular target: T1, BRM (Homo sapiens, UniProt P51531)
T1 construct: In-Cell Western Screen of BRM Degradation in SW1573 Cells; endogenous in cells; host or cells: SW1573
Assay: In-cell Western screen of BRM degradation in SW1573 cells (Dmax and DC50)
Format: cell-based
Outline: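 BRM levels were read by LI-COR in-cell Western after two-channel (800/680 nm) immunostaining of fixed, Triton-permeabilised SW1573 cells.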

[1] = BRM degradation, SW1573 cells, Table 2D, read-out: *DC50
[2] = BRM degradation, SW1573 cells, read-out: DC50
[3] = target protein degradation, read-out: BRM DC50
[4] = BRM degradation, SW1573 cells, tested at the top concentration of between 0.3 and 10 μM, read-out: Dmax (%) (% degraded)
[5] = BRM degradation, SW1573 cells, when tested at the top concentration of between 0.3 and 10 μM, read-out: Dmax (%) (% degraded)

T1 sequence (P51531 whole entry): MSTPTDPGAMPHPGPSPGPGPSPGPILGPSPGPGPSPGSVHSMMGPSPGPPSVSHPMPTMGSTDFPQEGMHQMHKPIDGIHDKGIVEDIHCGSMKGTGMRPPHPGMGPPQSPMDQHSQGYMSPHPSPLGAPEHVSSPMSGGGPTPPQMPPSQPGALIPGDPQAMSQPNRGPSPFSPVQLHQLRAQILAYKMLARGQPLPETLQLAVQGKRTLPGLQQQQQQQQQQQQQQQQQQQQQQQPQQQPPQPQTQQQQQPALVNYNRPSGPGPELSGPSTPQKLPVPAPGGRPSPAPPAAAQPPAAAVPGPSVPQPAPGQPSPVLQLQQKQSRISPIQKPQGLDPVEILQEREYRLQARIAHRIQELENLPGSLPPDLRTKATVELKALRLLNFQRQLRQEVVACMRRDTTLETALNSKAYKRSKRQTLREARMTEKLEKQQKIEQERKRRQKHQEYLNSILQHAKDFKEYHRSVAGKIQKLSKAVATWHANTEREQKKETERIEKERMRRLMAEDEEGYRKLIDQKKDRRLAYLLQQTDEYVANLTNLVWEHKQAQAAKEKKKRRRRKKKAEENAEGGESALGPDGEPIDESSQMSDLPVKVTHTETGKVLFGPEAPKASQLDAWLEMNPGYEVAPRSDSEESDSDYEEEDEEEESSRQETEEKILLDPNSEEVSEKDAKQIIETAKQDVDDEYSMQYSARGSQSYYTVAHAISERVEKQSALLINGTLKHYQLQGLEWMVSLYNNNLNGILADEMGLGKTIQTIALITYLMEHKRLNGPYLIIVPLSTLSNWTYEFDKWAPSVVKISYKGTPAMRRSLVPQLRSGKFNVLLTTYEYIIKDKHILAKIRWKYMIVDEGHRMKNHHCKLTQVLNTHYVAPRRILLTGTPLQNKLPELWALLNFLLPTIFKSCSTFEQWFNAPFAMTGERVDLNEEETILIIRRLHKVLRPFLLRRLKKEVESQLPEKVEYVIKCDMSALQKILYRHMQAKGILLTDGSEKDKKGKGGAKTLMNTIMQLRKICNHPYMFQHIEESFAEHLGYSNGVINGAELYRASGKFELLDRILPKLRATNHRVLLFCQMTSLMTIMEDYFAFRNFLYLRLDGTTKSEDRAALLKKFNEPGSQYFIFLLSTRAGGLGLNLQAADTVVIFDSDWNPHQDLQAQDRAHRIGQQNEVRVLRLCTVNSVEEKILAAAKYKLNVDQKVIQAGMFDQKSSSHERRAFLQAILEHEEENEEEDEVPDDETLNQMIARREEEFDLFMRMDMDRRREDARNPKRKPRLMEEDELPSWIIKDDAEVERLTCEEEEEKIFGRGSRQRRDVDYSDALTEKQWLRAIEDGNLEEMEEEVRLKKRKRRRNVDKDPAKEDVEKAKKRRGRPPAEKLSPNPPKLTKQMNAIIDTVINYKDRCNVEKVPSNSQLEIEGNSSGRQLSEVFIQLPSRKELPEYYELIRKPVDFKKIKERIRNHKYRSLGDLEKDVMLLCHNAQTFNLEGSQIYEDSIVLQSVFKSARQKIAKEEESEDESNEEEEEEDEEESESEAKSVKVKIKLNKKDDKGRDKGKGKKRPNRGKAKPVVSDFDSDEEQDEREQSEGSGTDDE

Cc1cc([C@@H](C(=O)N2C[C@H](O)C[C@H]2C(=O)N[C@@H](C)c2ccc(-c3scnc3C)cc2)[C@H](C)COCCCn2cc(-c3cc(-c4ccccc4O)nnc3N)cn2)on1 [compound 559, (2S,4R)-1-((2S,3S)-4-(3-(4-(3-amino-6-(2-hydroxyphenyl)pyridazin-4-yl)-1H-pyrazol-1-yl)propoxy)-3-methyl-2-(3-methylisoxazol-5-yl)butanoyl)-4-hydroxy-N-((S)-1-(4-(4-methylthiazol-5-yl)phenyl)ethyl)pyrrolidine-2-carboxamide]
DC50 [1]: > 30 nM

Cc1ncsc1-c1ccc([C@@H](NC(=O)[C@@H]2C[C@@H](O)CN2C(=O)[C@H](c2cc(OCCN3CCN(CCOc4cc(N5C6CCC5CN(c5cc(-c7ccccc7O)nnc5N)C6)ccn4)CC3)no2)C(C)C)C(=O)N(C)c2ccccc2)cc1 [compound 258, (2S,4R)-1-((2S)-2-(3-(2-(4-(2-((4-(3-(3-amino-6-(2-hydroxyphenyl)pyridazin-4-yl)-3,8-diazabicyclo[3.2.1]octan-8-yl)pyridin-2-yl)oxy)ethyl)piperazin-1-yl)ethoxy)isoxazol-5-yl)-3-methylbutanoyl)-4-hydroxy-N-((R)-2-(methyl(phenyl)amino)-1-(4-(4-methylthiazol-5-yl)phenyl)-2-oxoethyl)pyrrolidine-2-carboxamide]
DC50 [2]: > 30 nM

Cc1nccn1-c1ccc([C@H](C)NC(=O)[C@@H]2C[C@@H](O)CN2C(=O)[C@H](c2cc(OCCN3CCC(O[C@H]4C[C@H](Oc5cc(N6C7CCC6CN(c6cc(-c8ccccc8O)nnc6N)C7)ccn5)C4)CC3)no2)C(C)C)cn1 [compound 397, (2S,4R)-1-((2S)-2-(3-(2-(4-((1r,3S)-3-((4-(3-(3-amino-6-(2-hydroxyphenyl)pyridazin-4-yl)-3,8-diazabicyclo[3.2.1]octan-8-yl)pyridin-2-yl)oxy)cyclobutoxy)piperidin-1-yl)cthoxy)isoxazol-5-yl)-3-methylbutanoyl)-4-hydroxy-N-((S)-1-(6-(2-methyl-1H-imidazol-1-yl)pyridin-3-yl)ethyl)pyrrolidine-2-carboxamide]
DC50 [3]: > 30 nM

Cc1ncsc1-c1ccc([C@H](C)NC(=O)[C@@H]2C[C@@H](O)CN2C(=O)[C@@H](c2cc(N3CCC(CN4CCC(O[C@H]5C[C@H](Oc6cc(N7CCN(c8cc(-c9ccccc9O)nnc8N)CC7)ccn6)C5)CC4)CC3)no2)C(C)C)cc1 [compound 693, (2S,4R)-1-((R)-2-(3-(4-((4-((1r,3r)-3-((4-(4-(3-amino-6-(2-hydroxyphenyl)pyridazin-4-yl)piperazin-1-yl)pyridin-2-yl)oxy)cyclobutoxy)piperidin-1-yl)methyl)piperidin-1-yl)isoxazol-5-yl)-3-methylbutanoyl)-4-hydroxy-N-((S)-1-(4-(4-methylthiazol-5-yl)phenyl)ethyl)pyrrolidine-2-carboxamide]
DC50 (BRM degradation, SW1573 cells): < 2.5 nM

Cc1ncsc1-c1ccc(C2(NC(=O)[C@@H]3C[C@@H](O)CN3C(=O)[C@H](c3cc(OCCN4CCN(CCOc5cc(N6C7CCC6CN(c6cc(-c8ccccc8O)nnc6N)C7)ccn5)CC4)no3)C(C)C)CN(C)C2)cc1 [compound 228, (2S,4R)-1-((2S)-2-(3-(2-(4-(2-((4-(3-(3-amino-6-(2-hydroxyphenyl)pyridazin-4-yl)-3,8-diazabicyclo[3.2.1]octan-8-yl)pyridin-2-yl)oxy)ethyl)piperazin-1-yl)ethoxy)isoxazol-5-yl)-3-methylbutanoyl)-4-hydroxy-N-(1-methyl-3-(4-(4-methylthiazol-5-yl)phenyl)azetidin-3-yl)pyrrolidine-2-carboxamide]
DC50 [2]: > 30 nM

Cc1ncsc1-c1ccc([C@H](C)NC(=O)[C@@H]2C[C@@H](O)CN2C(=O)[C@H](c2cc(OCCC3CCN(C(=O)[C@H]4C[C@@H](CN5CCC(n6cc(-c7cc(-c8ccccc8O)nnc7N)cn6)CC5)C4)CC3)no2)C(C)C)cc1 [compound 465, (2S,4R)-1-((S)-2-(3-(2-(1-((1s,3R)-3-((4-(4-(3-amino-6-(2-hydroxyphenyl)pyridazin-4-yl)-1H-pyrazol-1-yl)piperidin-1-yl)methyl)cyclobutane-1-carbonyl)piperidin-4-yl)ethoxy)isoxazol-5-yl)-3-methylbutanoyl)-4-hydroxy-N-((S)-1-(4-(4-methylthiazol-5-yl)phenyl)ethyl)pyrrolidine-2-carboxamide]
Dmax (SW1573, % degraded, when tested at the top concentration of between 0.3 and 10 μM, read-out: BRM Dmax (%)): > 75%
DC50 [3]: < 2.5 nM

Cc1ncsc1-c1ccc([C@H](C)NC(=O)[C@@H]2C[C@@H](O)CN2C(=O)[C@H](c2cc(N3CC(COCCOc4cc(N5C6CCC5CN(c5cc(-c7ccccc7O)nnc5N)C6)ccn4)C3)no2)C(C)C)cc1 [compound 549, (2S,4R)-1-((2S)-2-(3-(3-((2-((4-(3-(3-amino-6-(2-hydroxyphenyl)pyridazin-4-yl)-3,8-diazabicyclo[3.2.1]octan-8-yl)pyridin-2-yl)oxy)ethoxy)methyl)azetidin-1-yl)isoxazol-5-yl)-3-methylbutanoyl)-4-hydroxy-N-((S)-1-(4-(4-methylthiazol-5-yl)phenyl)ethyl)pyrrolidine-2-carboxamide]
DC50 [1]: > 30 nM

Cc1ncsc1-c1ccc([C@@H](NC(=O)[C@@H]2C[C@@H](O)CN2C(=O)[C@@H](c2cc(OCCN3CCN(CCOc4cc(N5C6CCC5CN(c5cc(-c7ccccc7O)nnc5N)C6)ccn4)CC3)no2)C(C)C)C(=O)N(C)c2ccccc2)cc1 [compound 259, (2S,4R)-1-((2R)-2-(3-(2-(4-(2-((4-(3-(3-amino-6-(2-hydroxyphenyl)pyridazin-4-yl)-3,8-diazabicyclo[3.2.1]octan-8-yl)pyridin-2-yl)oxy)ethyl)piperazin-1-yl)ethoxy)isoxazol-5-yl)-3-methylbutanoyl)-4-hydroxy-N-((R)-2-(methyl(phenyl)amino)-1-(4-(4-methylthiazol-5-yl)phenyl)-2-oxoethyl)pyrrolidine-2-carboxamide]
DC50 [2]: < 2.5 nM
Dmax [4]: > 75%

Cc1cnsc1-c1ccc([C@H](C)NC(=O)[C@@H]2C[C@@H](O)CN2C(=O)[C@@H](c2cc(OCCN3CCN(CCOc4cc(N5C6CCC5CN(c5cc(-c7ccccc7O)nnc5N)C6)ccn4)CC3)no2)C(C)C)cc1 [compound 266, (2S,4R)-1-((2R)-2-(3-(2-(4-(2-((4-(3-(3-amino-6-(2-hydroxyphenyl)pyridazin-4-yl)-3,8-diazabicyclo[3.2.1]octan-8-yl)pyridin-2-yl)oxy)ethyl)piperazin-1-yl)ethoxy)isoxazol-5-yl)-3-methylbutanoyl)-4-hydroxy-N-((S)-1-(4-(4-methylisothiazol-5-yl)phenyl)ethyl)pyrrolidine-2-carboxamide]
DC50 [2]: < 2.5 nM
Dmax [4]: > 75%

Cc1ncsc1-c1ccc([C@H](C)NC(=O)[C@@H]2C[C@@H](O)CN2C(=O)[C@H](c2cc(OCCOCCOCCCCN3CC4(C3)CN(c3cc(-c5ccccc5O)nnc3N)C4)no2)C(C)C)cc1 [compound 65, (2S,4R)-1-((S)-2-(3-(2-(2-(4-(6-(3-amino-6-(2-hydroxyphenyl)pyridazin-4-yl)-2,6-diazaspiro[3.3]heptan-2-yl)butoxy)ethoxy)ethoxy)isoxazol-5-yl)-3-methylbutanoyl)-4-hydroxy-N-((S)-1-(4-(4-methylthiazol-5-yl)phenyl)ethyl)pyrrolidine-2-carboxamide]
DC50 [2]: > 30 nM

Cc1ncsc1-c1ccc(CNC(=O)[C@@H]2C[C@@H](O)CN2C(=O)[C@@H](c2cc(OCCOCCOCCOc3cc(N4C5CCC4CN(c4cc(-c6ccccc6O)nnc4N)C5)ccn3)no2)C(C)C)cc1 [compound 28, (2S,4R)-1-[(2R)-2-[3-[2-(2-[2-[(4-[3-[3-amino-6-(2-hydroxyphenyl)pyridazin-4-yl]-3,8-diazabicyclo[3.2.1]octan-8-yl]pyridin-2-yl)oxy]ethoxy]ethoxy)ethoxy]-1,2-oxazol-5-yl]-3-methylbutanoyl]-4-hydroxy-N-[[4-(4-methyl-1,3-thiazol-5-yl)phenyl]methyl]pyrrolidine-2-carboxamide]
DC50 [2]: < 2.5 nM
Dmax [5]: > 75%

Cc1ncsc1-c1ccc([C@H](C)NC(=O)[C@@H]2C[C@@H](O)CN2C(=O)[C@H](c2cc(OCC[C@@H]3CCN(C[C@H]4C[C@H](Oc5cc(N6C7CCC6CN(c6cc(-c8ccccc8O)nnc6N)C7)ccn5)C4)[C@H](C)C3)no2)C(C)C)cc1 (racemic) [compound 579, (2S,4R)-1-((2S)-2-(3-(2-((2R,4R)-1-(((1r,3R)-3-((4-(3-(3-amino-6-(2-hydroxyphenyl)pyridazin-4-yl)-3,8-diazabicyclo[3.2.1]octan-8-yl)pyridin-2-yl)oxy)cyclobutyl)methyl)-2-methylpiperidin-4-yl)ethoxy)isoxazol-5-yl)-3-methylbutanoyl)-4-hydroxy-N-((S)-1-(4-(4-methylthiazol-5-yl)phenyl)ethyl)pyrrolidine-2-carboxamide]
Dmax (BRM degradation, SW1573 cells, Table 2D, read-out: **Dmax (%) (% degraded)): > 75%
DC50 [1]: < 2.5 nM

Cc1ncsc1-c1ccc(CNC(=O)[C@@H]2C[C@@H](O)CN2C(=O)[C@H](C(C)C)N2Cc3ccccc3C2=O)c(OCCOCCOCCOCCOCCOCCn2cc(-c3cc(-c4ccccc4O)nnc3N)cn2)c1 [compound 20, (2S,4R)-N-(2-((17-(4-(3-amino-6-(2-hydroxyphenyl)pyridazin-4-yl)-1H-pyrazol-1-yl)-3,6,9,12,15-pentaoxaheptadecyl)oxy)-4-(4-methylthiazol-5-yl)benzyl)-4-hydroxy-1-((S)-3-methyl-2-(1-oxoisoindolin-2-yl)butanoyl)pyrrolidine-2-carboxamide]
DC50 [2]: > 30 nM
Dmax [5]: 50 to 75%
